Test results as given in patent US8952024B2, “Herbicidal pyrimidone derivatives” (E I du Pont de Nemours and Company, priority 2009, dated 2015).

Experiments:
Format in all cases: in vivo
[1] = tested on: wheat (Triticum aestivum); assay: Test A pre-/postemergence plant response; details: for Wheat plant response rating: visual injury, 0 to 100 scale (0 no effect, 100 complete control), approx. ten days
In short: (§1)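 Visual injury rating on a 0–100 scale (0 = no effect, 100 = complete control) was made versus untreated controls after about ten days in the greenhouse. Compounds, formulated in a non-phytotoxic solvent mix containing surfactant, were sprayed preemergence onto loam/sand soil and postemergence onto one- to two-leaf plants.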

[2] = tested on: velvetleaf (Abutilon theophrasti); assay: Test A pre-/postemergence plant response; details: for Velvetleaf plant response rating: visual injury, 0 to 100 scale (0 no effect, 100 complete control), approx. ten days
In short: as §1

[3] = tested on: barnyardgrass (Echinochloa crus-galli); assay: Test A pre-/postemergence plant response; details: for Barnyardgrass plant response rating: visual injury, 0 to 100 scale (0 no effect, 100 complete control), approx. ten days
In short: as §1

[4] = tested on: pigweed (Amaranthus retroflexus); assay: Test A pre-/postemergence plant response; details: for Pigweed plant response rating: visual injury, 0 to 100 scale (0 no effect, 100 complete control), approx. ten days
In short: as §1

[5] = tested on: giant foxtail (Setaria faberii); assay: Test A pre-/postemergence plant response; details: for Foxtail, Giant plant response rating: visual injury, 0 to 100 scale (0 no effect, 100 complete control), approx. ten days
In short: as §1

[6] = tested on: morningglory (Ipomoea spp.); assay: Test A pre-/postemergence plant response; details: for Morningglory plant response rating: visual injury, 0 to 100 scale (0 no effect, 100 complete control), approx. ten days
In short: as §1

[7] = tested on: large crabgrass (Digitaria sanguinalis); assay: Test A pre-/postemergence plant response; details: for Crabgrass, Large plant response rating: visual injury, 0 to 100 scale (0 no effect, 100 complete control), approx. ten days
In short: as §1

[8] = tested on: corn (Zea mays); assay: Test A pre-/postemergence plant response; details: for Corn plant response rating: visual injury, 0 to 100 scale (0 no effect, 100 complete control), approx. ten days
In short: as §1

[9] = tested on: barnyardgrass (Echinochloa crus-galli); assay: Test B flooded paddy test; details: for Plant response rating, Barnyardgrass: Flood (flooded paddy test), 125 g ai/ha, scale 0 to 100, 0 is no effect, 100 is complete control, 13 to 15 days; for Barnyardgrass plant response rating: Flood, 31 g ai/ha, scale 0 to 100 (0 no effect, 100 complete control)
In short: (§2)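 Seedlings reaching 2 leaves are flooded 3 cm deep; test material is delivered to that water, which stays at the same depth. Plants remain in a greenhouse 13–15 days and are then scored by eye versus controls from 0 to 100.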

[10] = tested on: umbrella sedge (Cyperus difformis); assay: Test B flooded paddy test; details: for Plant response rating, Sedge, Umbrella: Flood (flooded paddy test), 125 g ai/ha, scale 0 to 100, 0 is no effect, 100 is complete control, 13 to 15 days; for Sedge, Umbrella plant response rating: Flood, 31 g ai/ha, scale 0 to 100 (0 no effect, 100 complete control)
In short: as §2

[11] = tested on: rice (Oryza sativa); assay: Test B flooded paddy test; details: for Plant response rating, Rice: Flood (flooded paddy test), 125 g ai/ha, scale 0 to 100, 0 is no effect, 100 is complete control, 13 to 15 days; for Rice plant response rating: Flood, 31 g ai/ha, scale 0 to 100 (0 no effect, 100 complete control)
In short: as §2

[12] = tested on: ducksalad (Heteranthera limosa); assay: Test B flooded paddy test; details: for Plant response rating, Ducksalad: Flood (flooded paddy test), 125 g ai/ha, scale 0 to 100, 0 is no effect, 100 is complete control, 13 to 15 days; for Ducksalad plant response rating: Flood, 31 g ai/ha, scale 0 to 100 (0 no effect, 100 complete control)
In short: as §2

[13] = Postemergence, 125 g ai/ha, 0 to 100 scale where 0 is no effect and 100 is complete control
[14] = Preemergence, 125 g ai/ha, 0 to 100 scale, 0 = no effect, 100 = complete control
[15] = Preemergence, 500 g ai/ha, 0 to 100 scale, 0 = no effect, 100 = complete control

O=C1CCCC(O)=C1C(=O)c1cnc(-c2cc(F)cc(F)c2)n(CC2CCCO2)c1=O (stereo not shown) [Compound 180]
15: Plant response rating, Barnyardgrass [9] | Rice plant response rating [11]
75: Plant response rating, Ducksalad [12]
90: Plant response rating, Barnyardgrass [3, 13] | Plant response rating, Pigweed [4, 14] | Plant response rating, Crabgrass, Large [7, 13]
65: Plant response rating, Sedge, Umbrella [10]
40: Plant response rating, Morningglory [6, 13] | Corn plant response rating ([8]; Postemergence, 500 g ai/ha)
80: Plant response rating, Velvetleaf [2, 14] | Plant response rating, Barnyardgrass [3, 15] | Plant response rating, Crabgrass, Large [7, 14]
30: Wheat plant response rating ([1]; Postemergence, 500 g ai/ha) | Plant response rating, Barnyardgrass [3, 14] | Plant response rating, Foxtail, Giant [5, 14] | Plant response rating, Rice [11]
100: Plant response rating, Velvetleaf [2, 13] | Velvetleaf plant response rating ([2]; Postemergence, 500 g ai/ha) | Plant response rating, Velvetleaf [2, 15] | Barnyardgrass plant response rating ([3]; Postemergence, 500 g ai/ha) | Plant response rating, Pigweed [4, 13] | Pigweed plant response rating ([4]; Postemergence, 500 g ai/ha) | Plant response rating, Pigweed [4, 15] | Foxtail, Giant plant response rating ([5]; Postemergence, 500 g ai/ha) | Morningglory plant response rating ([6]; Postemergence, 500 g ai/ha) | Crabgrass, Large plant response rating ([7]; Postemergence, 500 g ai/ha) | Plant response rating, Crabgrass, Large [7, 15]
20: Plant response rating, Wheat [1, 15] | Sedge, Umbrella plant response rating [10]
10: Plant response rating, Corn [8, 13]
0: Plant response rating, Wheat [1, 13] | Plant response rating, Wheat [1, 14] | Plant response rating, Morningglory [6, 14] | Plant response rating, Corn [8, 14] | Plant response rating, Corn [8, 15] | Barnyardgrass plant response rating [9]
70: Plant response rating, Foxtail, Giant [5, 13] | Plant response rating, Foxtail, Giant [5, 15]
60: Ducksalad plant response rating [12]

CCOCCn1c(-c2cc(F)cc(F)c2)ncc(C(=O)C2=C(O)CCCC2=O)c1=O [Compound 182]
70: Plant response rating, Velvetleaf [2, 14] | Plant response rating, Barnyardgrass [3, 13] | Plant response rating, Barnyardgrass [3, 14] | Plant response rating, Morningglory [6, 14]
85: Plant response rating, Ducksalad [12]
20: Corn plant response rating ([8]; Postemergence, 500 g ai/ha) | Plant response rating, Corn [8, 15]
60: Ducksalad plant response rating [12]
90: Barnyardgrass plant response rating ([3]; Postemergence, 500 g ai/ha) | Plant response rating, Barnyardgrass [3, 15] | Plant response rating, Pigweed [4, 14] | Crabgrass, Large plant response rating ([7]; Postemergence, 500 g ai/ha)
80: Plant response rating, Pigweed [4, 13] | Foxtail, Giant plant response rating ([5]; Postemergence, 500 g ai/ha) | Plant response rating, Foxtail, Giant [5, 15] | Plant response rating, Morningglory [6, 15] | Plant response rating, Crabgrass, Large [7, 13]
100: Plant response rating, Velvetleaf [2, 13] | Velvetleaf plant response rating ([2]; Postemergence, 500 g ai/ha) | Plant response rating, Velvetleaf [2, 15] | Pigweed plant response rating ([4]; Postemergence, 500 g ai/ha) | Plant response rating, Pigweed [4, 15] | Plant response rating, Morningglory [6, 13] | Morningglory plant response rating ([6]; Postemergence, 500 g ai/ha) | Plant response rating, Crabgrass, Large [7, 14] | Plant response rating, Crabgrass, Large [7, 15]
50: Wheat plant response rating ([1]; Postemergence, 500 g ai/ha) | Plant response rating, Wheat [1, 15] | Plant response rating, Foxtail, Giant [5, 13] | Plant response rating, Foxtail, Giant [5, 14] | Sedge, Umbrella plant response rating [10]
75: Plant response rating, Sedge, Umbrella [10]
0: Plant response rating, Wheat [1, 13] | Plant response rating, Wheat [1, 14] | Plant response rating, Corn [8, 13] | Plant response rating, Corn [8, 14] | Plant response rating, Barnyardgrass [9] | Barnyardgrass plant response rating [9] | Plant response rating, Rice [11] | Rice plant response rating [11]
